# According to ChEMBL document CHEMBL1914389, “Steroidal C-21 mercapto derivatives as dissociated steroids: discovery of an inhaled dissociated steroid” (Bioorg Med Chem Lett, 2011):
# How the values were obtained:
# Rattus norvegicus [1] = assay: Toxicity in ip dosed Brown-Norway rat assessed as decrease in body weight administered for 3 days; format: organism-based; conditions: in vivo, 72 h
# Rattus norvegicus [2] = assay: Antiinflammatory activity in intratracheal insufflated allergen challenged Brown-Norway rat assessed as inhibition of inflammatory cell influx administered as single dose; format: functional; conditions: inhaled or nasal
# [3] = molecular target: T1, Glucocorticoid receptor (Homo sapiens) (UniProt P04150); assay: Transactivation activity at glucocorticoid receptor in human HepG2 cells assessed as induction of tyrosine amino transferase at 1 uM relative to control; format: cell-based
# T1 sequence (whole entry): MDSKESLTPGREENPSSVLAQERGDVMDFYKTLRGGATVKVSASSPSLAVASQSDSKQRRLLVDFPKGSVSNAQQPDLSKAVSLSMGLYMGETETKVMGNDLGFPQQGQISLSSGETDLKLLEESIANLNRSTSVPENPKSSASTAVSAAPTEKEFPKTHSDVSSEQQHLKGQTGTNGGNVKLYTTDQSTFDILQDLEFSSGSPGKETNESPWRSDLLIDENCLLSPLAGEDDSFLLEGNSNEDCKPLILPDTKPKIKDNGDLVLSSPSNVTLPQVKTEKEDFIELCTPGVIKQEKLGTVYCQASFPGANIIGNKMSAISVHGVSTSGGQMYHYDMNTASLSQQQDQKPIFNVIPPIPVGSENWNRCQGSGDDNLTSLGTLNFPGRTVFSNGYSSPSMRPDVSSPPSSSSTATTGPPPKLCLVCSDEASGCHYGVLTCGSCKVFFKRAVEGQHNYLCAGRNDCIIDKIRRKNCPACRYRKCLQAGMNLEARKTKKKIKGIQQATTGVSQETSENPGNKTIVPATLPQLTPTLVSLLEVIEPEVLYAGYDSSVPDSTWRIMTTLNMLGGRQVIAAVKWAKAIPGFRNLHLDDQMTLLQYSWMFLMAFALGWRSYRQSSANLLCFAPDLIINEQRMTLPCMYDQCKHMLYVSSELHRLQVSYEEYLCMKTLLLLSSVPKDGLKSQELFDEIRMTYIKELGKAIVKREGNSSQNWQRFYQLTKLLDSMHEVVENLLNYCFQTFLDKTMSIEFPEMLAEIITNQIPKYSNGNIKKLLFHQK
# Rattus norvegicus [4] = assay: Toxicity in ip dosed Brown-Norway rat assessed as decrease in adrenal weight administered for 3 days; format: organism-based; conditions: in vivo, 72 h
# Rattus norvegicus [5] = assay: Toxicity in ip dosed Brown-Norway rat assessed as decrease in thymus weight administered for 3 days; format: organism-based; conditions: in vivo, 72 h
# [6] = molecular target: T2, Glucocorticoid receptor (Rattus norvegicus) (UniProt P06536); assay: Transactivation activity at glucocorticoid receptor in rat H4II-E cells assessed as induction of tyrosine amino transferase at 1 uM relative to control; format: cell-based
# T2 sequence (whole entry): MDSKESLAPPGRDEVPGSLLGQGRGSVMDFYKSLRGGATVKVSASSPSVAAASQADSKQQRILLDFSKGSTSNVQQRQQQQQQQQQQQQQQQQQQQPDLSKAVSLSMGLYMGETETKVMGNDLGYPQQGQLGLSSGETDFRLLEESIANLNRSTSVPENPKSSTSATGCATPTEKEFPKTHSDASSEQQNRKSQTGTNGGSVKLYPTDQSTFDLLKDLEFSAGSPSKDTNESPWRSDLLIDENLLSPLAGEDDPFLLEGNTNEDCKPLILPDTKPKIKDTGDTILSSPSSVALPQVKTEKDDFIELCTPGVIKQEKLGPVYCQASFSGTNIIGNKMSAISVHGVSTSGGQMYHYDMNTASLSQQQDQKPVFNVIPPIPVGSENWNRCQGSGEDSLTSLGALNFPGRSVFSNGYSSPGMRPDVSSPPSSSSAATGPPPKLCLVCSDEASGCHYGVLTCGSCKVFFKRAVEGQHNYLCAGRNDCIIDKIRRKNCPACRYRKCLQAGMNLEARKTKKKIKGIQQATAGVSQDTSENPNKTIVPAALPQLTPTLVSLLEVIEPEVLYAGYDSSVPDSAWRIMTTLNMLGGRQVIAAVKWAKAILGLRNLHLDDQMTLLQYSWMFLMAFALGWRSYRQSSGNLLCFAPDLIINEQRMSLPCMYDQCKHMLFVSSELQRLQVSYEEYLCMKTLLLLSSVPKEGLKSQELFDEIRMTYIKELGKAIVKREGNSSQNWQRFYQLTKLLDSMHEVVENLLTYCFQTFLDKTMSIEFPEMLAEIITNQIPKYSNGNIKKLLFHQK
# Rattus norvegicus [7] = assay: Induction of thymolysis in ovalbumin-challenged Brown-Norway rat administered via nose inhalation; format: organism-based; conditions: in vivo, inhaled_or_intranasal
# [8] = molecular target: T1, Glucocorticoid receptor (Homo sapiens); assay: Transrepression activity at glucocorticoid receptor in human H292 cells assessed as inhibition of TNF-stimulated IL-6 cytokine synthesis at 1 uM relative to control; format: cell-based
# Rattus norvegicus [9] = assay: Antiinflammatory activity in ovalbumin-challenged Brown-Norway rat assessed as improvement in lung function administered via nose as dry powder inhalation once a day for 3 days; format: functional; conditions: inhaled or nasal, 72 h
structure (smiles),measurement,setting,value
CCC(=O)O[C@]1(C(=O)SCF)[C@H](C)C[C@H]2[C@@H]3C[C@H](F)C4=CC(=O)C=C[C@]4(C)[C@@]3(F)[C@@H](O)C[C@@]21C [FLUTICASONE PROPIONATE],ED50,Rattus norvegicus [1],0.34 mg/kg
same,ED50,Rattus norvegicus [2],0.14 mg/kg
same,Emax,[3],113%
same,ED50,Rattus norvegicus [4],0.52 mg/kg
same,ED50,Rattus norvegicus [5],0.14 mg/kg
same,Emax,[6],110%
same,ED20,Rattus norvegicus [7],0.023 mg/kg
same,Emax,[8],99%
same,ED70,Rattus norvegicus [9],0.021 mg/kg
